In EP0527720B1, “THERAPEUTIC AGENTS” (The Boots Company PLC, priority 1989, dated 1990):

Tested on: heart failure patients
Assay: Earlier clinical studies of flosequinan 150 mg alone in heart failure patients
Type: in vivo, human
Settings: heart failure patients receiving 150 mg doses of flosequinan
From the text: An increase of heart rate is generally an undesirable effect in the treatment of heart failure since additional stress is placed on the failing heart. Furthermore, patients receiving such therapy may report adverse drug events associated with the increase in heart rate such as tachycardia and palpitations. These undesirable side effects of vasodilatory drug therapy effectively limit the maximum dose of the drug which can be safely administered.
This was particularly remarkable since no increase in heart rate (HR) was apparent. This implies that the increase in cardiac output (CO) evident after coadministration of captopril and flosequinan is due to an increase in stroke volume and not due, at least in part, to an increase in heart rate (HR) as expected.

Q: With `Cn1cc([S+](C)[O-])c(=O)c2ccc(F)cc21` (stereo not shown) [flosequinan, 7-fluoro-1-methyl-3-methylsulphinyl-4-quinolone] as the compound, how does the heart rate read?
A: The heart rate was “an increase of heart rate occurs”.
